Data reported in patent US20100055712A1, “Oligopeptides for treatment of osteoporosis and other bone diseases and methods therefor” (Washington University, priority 2008, published 2010).
*1 amine or outer side, *2 acyl side, *3 side chain or, on linkers, in order; H or OH if unused. Where a SMILES comes first, the peptide text is derived from it. [ ]: non-standard residue; d: D form. The star is where a group is joined. X1 = CC(N[*:1])C(=O)C(F)(F)C(=O)[*:2]; Boc = CC(C)(C)OC(=O)*

test system: LRP1 expression in WT MEF cells; test: LRP1 expression in WT MEF cells after treatment with γ-secretase inhibitors (western blot); assay type: cell-based, mouse; settings: FIGS. 5I and 5J
From the text: The requirement of γ-secretase activity in LRP1 regulation was further verified by two alternative approaches.

| SMILES | LRP1 expression |
| --- | --- |
| C[C@H](NC(=O)Cc1cc(F)cc(F)c1)C(=O)N[C@H](C(=O)OC(C)(C)C)c1ccccc1 [DAPT] | enhanced LRP1 expression |
| CCC(C)C(NC(=O)C(NC(=O)OC(C)(C)C)C(C)C)C(=O)NC(C)C(=O)C(F)(F)C(=O)NC(C(=O)NC(C(=O)OC)C(C)CC)C(C)C (stereo not drawn) [DFK, DFK167] (Boc-VI[X1]VI-OMe; configuration not given here) | enhanced LRP1 expression |
| CC(C)C[C@H](NC(=O)[C@H](Cc1ccccc1)C[C@@H](O)[C@H](Cc1ccccc1)NC(=O)OC(C)(C)C)C(=O)N[C@@H](Cc1ccccc1)C(N)=O [L685,458] | enhanced LRP1 expression |
